Key:
KELLY cells [1] = assay: Primary miRNA mimic screen in combination with low dose IC30 of vincristine or doxorubicin, cell viability; type: cell-based; settings: for Primary screen Viability (% of control) Kelly DXR: miRNA mimic 25 nM + low dose IC30 doxorubicin; for Primary screen Viability (% of control) Kelly VCR: miRNA mimic 25 nM + low dose IC30 vincristine; for Primary screen Viability (% of control) Kelly Vehicle: miRNA mimic 25 nM + vehicle
Description: To systematically identify miRNAs that affect viability and survival of neuroblstoma cells in combination with chemotherapy, a further functional miRNA screen was performed using the 1200 miRNAs from the miRIDIAN miRNA mimic Library (version 16.0; Dharmacon) in combination with low dose IC30 of vincristine or doxorubicin in the two neuroblastoma cancer cell lines. In doing so, the inventors identified miRNAs which result in a lethal phenotype to neuroblastoma cells when administered in combination with low dose IC30 chemotherapy (hereinafter referred to as ‘synthetic lethal’ miRNAs). […] After 24 hours, media was changed using a BioTek 406. […] Luminescence measurements were taken on the Synergy H4 high-throughput multimode microplate reader as described in Example 1. All screens were performed in duplicates.

KELLY cells [2] = assay: Secondary validation screen of synthetic lethal miRNAs with low dose IC30 chemotherapy, cell viability; type: cell-based; settings: for Secondary screen Viability (% of control) Kelly DXR: miRNA mimic + low dose IC30 doxorubicin; for Secondary screen Viability (% of control) Kelly VCR: miRNA mimic + low dose IC30 vincristine; for Secondary screen Viability (% of control) Kelly Vehicle: miRNA mimic + vehicle; for synthetic lethality with chemotherapy: in both Kelly and SKNDZ MYCN-amplified cells, secondary screen
Description: (§1) KELLY cells were grown in 10% FCS/RPMI as described in Example 1 and reverse transfected in 384-well plate format with 25 nM of a miRNA from the Dharmacon microRNA mimic Library (version 16.0) using liquid-handling robot Calliper Sciclone ALH3000 according to the conditions described in Table 3. After 24 hours, media was changed using a BioTek 406. Media was again changed after 48 hours and 96 hours using a BioTek 406, and at each of those time points low dose IC30 of vincristine or doxorubicin was added to the culture. 144 hours post-transfection, cell viability was determined using CellTiter-Glo luminescent assay (Promega) at 1:2 dilution. Luminescence measurements were taken on the Synergy H4 high-throughput multimode microplate reader as described in Example 1. All screens were performed in duplicates. The experimental design and timeline for this screen are illustrated in FIGS. 5 and 6, respectively.
(§2) The secondary validation screens were performed in accordance with the genome-wide screens described in Example 1 and Example 2, respectively, with the exception that an additional MYCN-amplified neuroblastoma cell line (SK-N-DZ) was added to each screen.
(§3) Furthermore, five additional non-active miRNAs discovered to have no measureable effect across all treatment groups of the genome-wide screen (‘non-lethal’ miRNAs) were included as negative controls.

[3] = tested on: SK-N-DZ MYCN-amplified neuroblastoma cell line; assay: Secondary validation screen of synthetic lethal miRNAs with low dose IC30 chemotherapy, additional cell line; type: cell-based; settings: for Additional cell line Viability (% of control) SKNDZ DXR: miRNA mimic + low dose IC30 doxorubicin; for Additional cell line Viability (% of control) SKNDZ VCR: miRNA mimic + low dose IC30 vincristine; for Additional cell line Viability (% of control) SKNDZ Vehicle: miRNA mimic + vehicle
Description: as §1, §2, §3

IMR-90 cells = assay: Cell toxicity screen of synthetic lethal miRNAs in non-cancer cells; settings: for cell viability in non-cancer cells, DXR (% of control): IMR-90, miRNA + low dose IC30 doxorubicin; for cell viability in non-cancer cells, VCR (% of control): IMR-90, miRNA + low dose IC30 vincristine; for cell viability in non-cancer cells, Media (% of control): IMR-90, miRNA alone (media)
Description: The cell toxicity screens were performed in IMR-90 cells (normal human fibroblast cells, ATCC).

Substance | Primary screen Viability (% of control) Kelly DXR (KELLY cells [1]) | Primary screen Viability (% of control) Kelly VCR (KELLY cells [1]) | Primary screen Viability (% of control) Kelly Vehicle (KELLY cells [1]) | Secondary screen Viability (% of control) Kelly DXR (KELLY cells [2]) | Secondary screen Viability (% of control) Kelly VCR (KELLY cells [2]) | Secondary screen Viability (% of control) Kelly Vehicle (KELLY cells [2]) | Additional cell line Viability (% of control) SKNDZ DXR [3] | Additional cell line Viability (% of control) SKNDZ VCR [3] | Additional cell line Viability (% of control) SKNDZ Vehicle [3] | synthetic lethality with chemotherapy (KELLY cells [2]) | cell viability in non-cancer cells, DXR (% of control) (IMR-90 cells) | cell viability in non-cancer cells, VCR (% of control) (IMR-90 cells) | cell viability in non-cancer cells, Media (% of control) (IMR-90 cells)
hsa-miR-3646 (AAAAUGAAAUGAGCCCAGCCCA; chemistry not given here; listed as Homo sapiens) | 34 % of control | 55 % of control | 74 % of control | 45 % of control | 72 % of control | 70 % of control | 52 % of control | 110 % of control | 101 % of control |  |  |  | 
hsa-miR-515-3p (guide GAGUGCCUUCUUUUGGAGCGUU; chemistry not given here; listed as Homo sapiens) | 38 % of control | 56 % of control | 84 % of control | 42 % of control | 73 % of control | 82 % of control | 24 % of control | 70 % of control | 85 % of control | substantial synthetic lethality | 50 % of control | 51 % of control | 59 % of control
hsa-miR-1321 (CAGGGAGGUGAAUGUGAU; chemistry not given here; listed as Homo sapiens) | 4 % of control | 18 % of control | 42 % of control | 7 % of control | 24 % of control | 50 % of control | 21 % of control | 45 % of control | 64 % of control | substantial synthetic lethality | 23 % of control | 23 % of control | 48 % of control
hsa-miR-100-5p (AACCCGUAGAUCCGAACUUGUG; chemistry not given here; listed as Homo sapiens) | 34 % of control | 48 % of control | 68 % of control | 43 % of control | 43 % of control | 69 % of control | 48 % of control | 69 % of control | 98 % of control |  |  |  | 
hsa-miR-449a (guide UGGCAGUGUAUUGUUAGCUGGU; chemistry not given here; listed as Homo sapiens) | 62 % of control | 22 % of control | 72 % of control | 83 % of control | 35 % of control | 75 % of control | 49 % of control | 44 % of control | 71 % of control |  |  |  | 
hsa-miR-3181 (AUCGGGCCCUCGGCGCCGG; chemistry not given here; listed as Homo sapiens) | 34 % of control | 57 % of control | 94 % of control | 61 % of control | 96 % of control | 108 % of control | 38 % of control | 83 % of control | 91 % of control |  |  |  | 
hsa-miR-34c-5p (AGGCAGUGUAGUUAGCUGAUUGC; chemistry not given here; listed as Homo sapiens) | 74 % of control | 36 % of control | 72 % of control | 80 % of control | 18 % of control | 68 % of control | 34 % of control | 31 % of control | 53 % of control |  |  |  | 
hsa-miR-3151 (GGUGGGGCAAUGGGAUCAGGU; chemistry not given here; listed as Homo sapiens) | 40 % of control | 52 % of control | 102 % of control | 65 % of control | 47 % of control | 102 % of control | 71 % of control | 72 % of control | 87 % of control |  |  |  | 
hsa-miR-3924 (AUAUGUAUAUGUGACUGCUACU; chemistry not given here; listed as Homo sapiens) | 35 % of control | 40 % of control | 72 % of control | 46 % of control | 57 % of control | 75 % of control | 41 % of control | 81 % of control | 85 % of control |  |  |  | 
